Measurements reported in BindingDB's records for doi:10.1002/cbic.201402579 (2015).

Target: Cyclin-dependent kinase 2 (Homo sapiens, UniProt P24941)
Experiment: Protein Kinase Assay
Conditions: pH 7.5; 30 °C
Protocol: We incubated human recombinant CDK2/cyclin A with small molecules at the indicatedconcentrations in buffer A (Tris HCl (25 mm, pH 7.5), MgCl2 (10 mm), EGTA (1 mm), DTT (1 mm), heparin ([…])) containing histone H1 (1 mg/mL), […] and [g-33P]ATP (15 mm, 3,000 Cimmol^-1; 10 mCi/mL) in a […]. After 30 min incubation at 30 C , we stopped the reaction by using a MicroBeta FilterMate-96 Harvester and P81 phosphocellulose papers , which we washed in phosphoric acid (1 %). We added scintillation fluid, and we measured the radioactivity in a counter with microplate robotic stackers. We calculated kinase activity as picomoles of phosphate incorporated during the 30 min incubation. We evaluated percentage kinase activity as the amount compared to that measured in the absence of inhibitors.

| Structure (SMILES) | Kd [µM] |
| --- | --- |
| NNc1ncnc2sc3c(c12)CCCC3 [4-hydrazino-5,6,7,8-tetrahydro[1]benzothieno[2,3-d]pyrimidine (A)] | 28.3 |
| NNc1ncnc2sc3c(c12)CCCCC3 [4-hydrazino-6,7,8,9-tetrahydro-5H-cyclohepta[4,5]thieno[2,3-d]pyrimidine (A1)] | 32.5 |

The next lines start with the values.

| Kd [µM] | Structure (SMILES) |
| --- | --- |
| 9.6 | O=C(O)c1cc(O)c2c(c1)C(=O)c1cccc(O)c1C2=O [RHEIN] |
| 17.8 | CC(=O)OCc1cc(O)c2c(c1)C(=O)c1cccc(O)c1C2=O [11-O-acetyl-aloe-emodin] |
| 287 | NNc1ncnc2sc3c(c12)CCC3 [7,8-dihydro-6H-cyclopenta[4,5]thieno[1,2-c]pyrimidin-1-yldiazane] |
